Reference: PubChem BioAssay (NCI)
Several values for one entry are separate records, joined by “and”; a condition that tells them apart may be missing. Identical values can stand only once.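 Each compound was tested at five concentrations against cells in 96-well plates for 48 hours. TGI denotes the concentration required for complete inhibition of growth.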

Assays:
Test in all cases: growth of human tumour cells (NCI), 48 h
786-0 renal = test system: 786-0 renal
DU-145 prostate = test system: DU-145 prostate
HCT-15 colon = test system: HCT-15 colon
HS 578T breast = test system: HS 578T breast
KM12 colon = test system: KM12 colon
LOX IMVI melanoma = test system: LOX IMVI melanoma

Row | Compound | TGI (786-0 renal) | TGI (DU-145 prostate) | TGI (HCT-15 colon) | TGI (HS 578T breast) | TGI (KM12 colon) | TGI (LOX IMVI melanoma)
1 | COc1ccc([C@H]2C=C(c3cc(F)c(Cl)cc3Cl)NC(=S)N2)cc1 | > 100 µM | > 100 µM | > 100 µM | > 100 µM | > 100 µM | > 100 µM
2 | CC[C@H](C)C1=C(O)[N@+]2([O-])Oc3ccc(-c4c(O)c(O)c(-c5ccc(OC(C)=O)cc5)c(OC(C)=O)c4OC(C)=O)cc3O[C@]2([C@@H](C)CC)C(=O)N1O | > 50 µM | > 50 µM | > 50 µM | > 50 µM | > 50 µM | > 50 µM
3 | O=c1cc(-c2ccccc2)oc2ccc(-c3ccc4oc(-c5ccccc5)cc(=O)c4c3)cc12 | 72.5 µM |  | 30 µM | 37.4 µM |  | 33.2 µM
4 | CN1CCCC1=NC#N | > 100 µM | > 100 µM | > 100 µM | > 100 µM | > 100 µM | > 100 µM
5 | CN1C(=O)[C@@H]2N(CSC2(C)C)C1=S | > 100 µM | > 100 µM | > 100 µM |  | > 100 µM | 
6 | COc1cc(S(=O)(=O)Nc2nc(-c3ccc(N)cc3)cs2)ccc1Cl | > 100 µM | > 100 µM | > 100 µM | > 100 µM | > 100 µM | > 100 µM
7 | OCc1ccc2c(c1)CC1(C2)Cc2cc3c(cc2C1)CCC3 | > 100 µM | > 100 µM | > 100 µM | 29.3 µM | > 100 µM | > 100 µM
8 | CC#Cc1cc2c(cc1O)CC[C@@H]1[C@@H]2CC[C@]2(C)[C@@H](O)CC[C@@H]12 | 35.1 µM | 46.9 µM | 14.2 µM | 29.5 µM | 14.1 µM | 19.5 µM
9 | NNc1ccccc1Cl | > 100 µM | > 100 µM | > 100 µM | > 100 µM | > 100 µM | > 100 µM
10 | CC(C)(C)OC(=O)NC(Cc1ccc(OCc2ccccc2)cn1)C(=O)NCc1ccccc1 (stereo not given) | > 100 µM | > 100 µM | 72.8 µM | > 100 µM | 97.8 µM | 39.4 µM
11 | O=C1CSC(c2ccc(Cl)cc2)N1c1ccc(-c2ccc(-n3c(-c4ccccc4)nc4ccccc4c3=O)cc2)cc1 (stereo not given) | > 100 µM | > 100 µM | > 100 µM | > 100 µM | > 100 µM | 45.2 µM
12 | COC(=O)[C@@H]1C2OC(C)(C)OC2CN1C(=O)OCc1ccccc1 (stereo not given in full) | > 100 µM | > 100 µM | > 100 µM | > 100 µM | > 100 µM | > 100 µM
13 | O=C(Nc1sccc1S(=O)(=O)c1ccc(Cl)cc1)C(F)(F)F | > 100 µM | > 100 µM | > 100 µM | 72.1 µM | 61.4 µM | > 100 µM
14 | CCO/C=N/C1=C(C#N)C(c2ccc(Cl)cc2)c2c(-c3ccccc3)nn(-c3ccccc3)c2O1 (stereo not given) | 32.2 µM | > 31.6 µM | > 52.5 µM | > 28.1 µM | 18.7 µM | 31 µM
15 | CN(C)/C=C(\C(=O)c1ccccc1)n1nc(-c2ccccc2)cc1-c1ccccc1 | > 10 µM | > 10 µM | > 10 µM | > 10 µM | > 10 µM | > 10 µM
16 | NCCCCN(CCCN)Cc1ccccc1 | > 100 µM | > 100 µM | > 100 µM | > 100 µM | > 100 µM | 

Row | Compound | TGI (786-0 renal) | TGI (DU-145 prostate) | TGI (HCT-15 colon) | TGI (HS 578T breast) | TGI (KM12 colon) | TGI (LOX IMVI melanoma)
17 | CN(C)c1nc(=NCc2cccs2)ss1 | > 10 µM | > 10 µM | > 10 µM | > 10 µM | > 10 µM | > 10 µM
18 | N#Cc1c(N)c2c(c(-c3ccccc3)c1-c1ccccc1)C(=O)N(NC(=O)c1ccccc1)C2=O | > 100 µM | > 100 µM | > 100 µM | > 100 µM | > 100 µM | > 100 µM
19 | COc1ccc2oc(=O)c(CC=C(C)C)c(O)c2c1C | > 100 µM | > 100 µM | > 100 µM | > 100 µM | > 100 µM | > 100 µM
20 | COc1ccc2c(c1)CC[C@@H]1[C@@H]2CC[C@]2(C)C(=O)/C(=C/c3ccncc3)C[C@@H]12 | > 100 µM | > 100 µM | > 100 µM |  | 73.9 µM | > 100 µM
21 | Cc1ccc(C(CC(=O)C(C)(C)CN2CCCCC2)SCCS(=O)(=O)O)cc1 (stereo not given) | 59.9 µM | > 100 µM | 72 µM | 68.9 µM | > 100 µM | 
22 | COC(=O)n1c(=O)n(-c2ccccc2)c(=O)n1C(=O)Nc1ccccc1 | > 100 µM | > 100 µM | > 100 µM | > 100 µM | > 100 µM | > 100 µM
23 | CCOC(=O)CCC(NC(=O)c1ccc(Nc2nc3ccccc3n3cccc23)cc1)C(=O)OCC (stereo not given) | 33.2 µM | 97.7 µM | > 100 µM | > 100 µM | > 100 µM | > 100 µM
24 | COc1c(C)c(C/C=C(\C)CCCCO)c(OC)c(OC)c1OC | > 100 µM | > 100 µM | > 100 µM | > 100 µM | 41.5 µM | 61.2 µM
25 | c1ccc(N=c2sc3ccccc3sc2=Nc2ccccc2)cc1 | 3.14 µM | 17.1 µM | 3.57 µM | 7.51 µM | 4.25 µM | 3.43 µM
26 | Cc1ccc(CC2(OCCN(C)C)CCC(C(C)(C)C)CC2)cc1 (stereo not given) | 4.45 µM and 3.7 µM | 15.1 µM and 17.1 µM | 14.9 µM and 15.4 µM | 28.4 µM and 21.2 µM | 13 µM and 10.4 µM | 3 µM and 3.97 µM
27 | CC1=C(C#N)C2C(=C(N)Oc3ccccc32)C(N)=N1 (stereo not given) | 60.9 µM | 60.9 µM | 41.4 µM | 72.1 µM | 71.2 µM | 81.7 µM
28 | CC(C)Oc1ccc(CNC2=NCCO2)c2ccccc12 | 26.4 µM | 33.5 µM | 29.8 µM | 32 µM | 34 µM | 
29 | C[C@]12CC[C@H](O)C=C1CC[C@@H]1[C@@H]2CC[C@]2(C)C(=N/O)/C(=C/c3ccncc3)C[C@@H]12 | 25.5 µM | 19.9 µM | > 100 µM | > 100 µM | > 100 µM | > 100 µM
30 | COc1ccc(N2C(=O)c3cccnc3S2(=O)=O)cc1 | > 100 µM | > 100 µM | > 100 µM |  | > 100 µM | 
31 | Cc1ccsc1C(=O)C(CC(=O)c1cccs1)c1ccsc1 (stereo not given) | > 100 µM | > 100 µM | > 100 µM | > 100 µM | > 100 µM | 
